For series [1] the following is noted: ref REACH dossier; cited from earlier work.
Details of series [2]: method as in REACH dossier. The conditions noted are these: method as noted in the cell (shake flask, solubility ratio, HPLC, BCFBAF, pH); ref REACH dossier; cited from earlier work.
The subject of another series is carp. Also on record: method as in REACH dossier. To be noted: carp 28d pH7; ref REACH dossier; cited from earlier work.
The conditions of series [3]: marked * = measured; used for IVIVE; same values as Table 3; cited from earlier work.
Series [4] can be described thus: RT-S9 substrate depletion assay, individual compounds, with IVIVE. The conditions noted are these: tested individually. Here is the method:
The in vitro intrinsic clearance by the S9 fraction of rainbow trout liver was measured for the same 11 anionic surfactants used in the BCF experiment as separate compounds. […] An established RT-S9 substrate depletion assay was employed,[25]−[27] predating the currently available OECD guideline 319B.[28] A single batch of the characterized liver homogenate material was prepared at the US EPA lab in Duluth and shipped on dry ice to the testing facilities at the University of Amsterdam. The test was conducted using the same method applied for a series of cationic surfactants in Droge et al.[29] and is summarized together with the in vitro–in vivo extrapolation in Text S4.
(§1) Text S4: Trout liver S9 parent depletion assay details and IVIVE
(§2) Liver tissue was separately pooled from the same five rainbow trout (three males/two females, ~300 g, liver weight ~3 g) used also for the RT-S9 study on a series of cationic surfactants (Droge et al., 2021b). The liver sample was homogenized in an appropriate buffer and then centrifuged to yield a 13,000 x g supernatant (the ‘S9 fraction’, lacking only mitochondrial fractions). No further refinement towards microsomal fractions was made to remove cytosolic and lysosomal components.
(§3) Upon arrival at the University of Amsterdam the liver
(§4) S9 material was stored in a -80 °C freezer until use.
(§5) Individual chemicals were first dissolved in methanol and then further diluted to 20% methanol in 100 mM phosphate buffer to make a ~20 µM stock solution, which was then spiked as 10 µL in 190 µL of active S9 mixture. The active S9 mixture consisted of 100 mM potassium phosphate-buffered saline (PPBS) adjusted to pH 7.8, 2 mM β-NADPH, 2 mM UDPGA, 0.1 mM PAPS, 5 mM GSH, 10 μg/mL alamethicin (in methanol carrier; 0.1% v/v final concentration), and 2 mg/mL S9 protein. The substrate depletion assays were performed using the multiple vial method described in OECD TG 319B, employing two or three separately spiked series.
(§6) Reactions were performed at 11 °C in a temperature-controlled water bath (B. Braun Frigomix-R) that was placed on a 2 cm travel path shaker (Gerhardt LS 10) set at 45 rpm. As a positive […]
(§7) alkylsulfonates, no additional assays with inactivated RT-S9 were performed.
(§8) Reactions were quenched with 600 µL ice-cold acetonitrile. After 10 s vortexing and 5 min centrifugation (Hermle Z300, 2500 rpm), 100 µL clear supernatant was transferred into 300 µL glass inserts placed in new autosampler vials, and mixed with 100 µL pure water. Concentrations were measured using a Prominence UFLC-XR system (Shimadzu) coupled to a tandem mass spectrometer (QTRAP 4000, Applied Biosystems) with a Turbo Ion spray source operated at 400 ◦C. For chromatographic separations, a 100 x 2.1mm x 2.7 µm Supelco Ascentis Express column was used (40 °C), with eluent A: pure water with 2 mM ammonium acetate, and eluent […]
(§9) prepared in 50% acetonitrile/water, calibration curves used covered at least four points in a log-linear range. The lowest external standard to fit the log-linear calibration curve served as limit of quantification, requiring a peak of at least 10x the average noise.
(§10) Each vial was treated as an independent vial with recorded exposure time. Log-transformed concentration data of the parent compound were plotted against exposure time (min) and analysed using Graphpad PRISM 8. […]
(§11) the slope (min-1) was multiplied by -2.3 and by 60 (min h-1) to obtain a first order depletion rate […]
(§12) Extrapolation of kdep to whole body rate biotransformation rate constant (kB-S9) The basic approach to extrapolate first order depletion rate constants (k dep) to whole body

Series [5] in a line: RT-S9 substrate depletion assay, mixture of 9 anionic surfactants (AnionMixture). The conditions noted are these: tested in a mixture. Here is the method: An established RT-S9 substrate depletion assay was employed,[25]−[27] predating the currently available OECD guideline 319B.[28] A single batch of the characterized liver homogenate material was prepared at the US EPA lab in Duluth and shipped on dry ice to the testing facilities at the University of Amsterdam. The test was conducted using the same method applied for a series of cationic surfactants in Droge et al.[29] and is summarized together with the in vitro–in vivo extrapolation in Text S4.
as §1, §2, §3, §4, §5, §6, §7, §8, §9, §10, §11, §12

The next series has as its system rainbow trout. To be noted: rainbow trout, similar water hardness; cited from earlier work.
A further series relates to Danio rerio. To be noted: in vivo, pH 7.6; cited from earlier work.
On the set-up of series [6]: method as in REACH dossier. The conditions noted are these: experimental, several studies; ref REACH dossier; cited from earlier work.
A further series concerns several species. On the set-up: method as in doi:10.1186/s12302-020-00435-1. To be noted: LSC of radiolabeled compound, upper boundary; cited from earlier work.
The test system of a further series is Cyprinus carpio. To be noted: in vivo; cited from earlier work.

As for `CCCCCCCCCCCCCCCCCCOP(=O)([O-])[O-].[K+].[K+]` [1-Octadecanol, phosphate, potassium salt], in [1], the “Degradation information ~28d-sludge test (% degradable)” value is 0%. In addition, in series [2], the LogKow is 8.556.

`CC(CC(=O)O)CC(C)(C)C` (stereo not shown) [3,5,5-trimethylhexanoic acid]: in series [1], the “Degradation information ~28d-sludge test (% degradable)” value was 96%. Further, the BCF in the series on carp was 1 to 7 L/kg.

`CCCCCCCC(C=O)NCCCCCC(=O)O` (stereo not shown) [6-[(1-formyloctyl)amino]hexanoic acid]: the “Degradation information ~28d-sludge test (% degradable)” value in series [1] is 98%. Further, in series [2], the LogKow is recorded as 2.47. Turning to `CCCCC(CC)COP(=O)(O)OCC(CC)CCCC` (stereo not shown) [BEHP, bis(2-ethylhexyl)phosphate], in series [3], the “log DMW, membrane-water distribution ratio” value is given as 3.81. Also, in series [4], the “CLint,S9” value is given as “n.s”. The “Slope of depletion curve (log concentration vs time)” value in series [4] (2 mg/mL S9 protein, 11 °C) was -0.0001 min-1; in series [5], -0.0003 min-1. Turning to `CCCCCCCCCC(C)c1ccc(S(=O)(=O)O)cc1` (stereo not shown) [C11-2-LAS, reference compound], the BCF with rainbow trout is on record as 6 L kg^–1. For `CCCCCCCCCCCC(=O)O` [C11CO2], in the series on Danio rerio, the BCF is 255 L/kg and the “Exp BCF” value is listed as 255. Consider `CCCCCCCCCCCCOS(=O)(=O)[O-].[Na+]` [C12SO4, sodium dodecylsulfate], for which the “Degradation information ~28d-sludge test (% degradable)” value in series [1] is given as 94-97%. The BCF in [6] is listed as 1-10; in the series on several species, 1–7.15 L kg^–1. On to `CCCCCCCCCCCCCCOS(=O)(=O)O` [C14SO4], for which the BCF with Cyprinus carpio is 11 L kg^–1. In the case of `CCCCC(CC)COP(=O)(O)O` (stereo not shown) [[(2-ethylhexyl)oxy]phosphonic acid], the “Degradation information ~28d-sludge test (% degradable)” value in [1] is recorded as 26-78%. In addition, the LogKow in series [2] is given as < 3. In the case of `CCCCCCC(O)CCCCCCCCCCC(=O)[O-].CCCCCCCCCCCCCCCCCC(=O)[O-].[Li+].[Li+]` (stereo not shown) [dilithium(1+) ion 12-hydroxyoctadecanoate octadecanoate], the “Degradation information ~28d-sludge test (% degradable)” value in [1] is 74-97%. With `CCCCCCC(O)CCCCCCCCCCC(=O)[O-].[Li+]` (stereo not shown) [lithium(1+) ion 12-hydroxyoctadecanoate], in [1], the “Degradation information ~28d-sludge test (% degradable)” value is 74-97%. In the case of `CCCCCCCCC(=O)O` [nonanoic acid], the “Degradation information ~28d-sludge test (% degradable)” value in [1] is 68 -75%. In addition, in series [2], the LogKow was 3.42. On to `CCCCCCCCP(=O)(O)O` [octylphosphonic acid], for which the “Degradation information ~28d-sludge test (% degradable)” value in [1] is 65-88%. In addition, the LogKow in series [2] is listed as 2.7. As to `CCCCC(CC)COC(=O)CC(C(=O)OCC(CC)CCCC)S(=O)(=O)[O-].[K+]` (stereo not shown) [potassium 1,4-bis[(2-ethylhexyl)oxy]-1,4-dioxobutane-2-sulfonate], the “Degradation information ~28d-sludge test (% degradable)” value in [1] is recorded as 83.5-100%. For the same compound, the LogKow in [2] is listed as 2.0. With `CCCCCCCCCCCCOP(=O)([O-])O.[K+]` [potassium dodecyl hydrogen phosphate], the “Degradation information ~28d-sludge test (% degradable)” value in series [1] is listed as 4-63%. Further, the LogKow in series [2] was 2.74. Consider `CC(C)CP(=S)([S-])CC(C)C.[Na+]` [sodium diisobutylphosphinodithioate], for which the “Degradation information ~28d-sludge test (% degradable)” value in [1] is 78,8%. In addition, the LogKow in series [2] is on record as -1.64.

These data come from publication PMC9118553, “In Vivo Bioconcentration of 10 Anionic Surfactants in Rainbow Trout Explained by In Vitro Data on Partitioning and S9 Clearance” (Environmental Science & Technology, 2022).
